In patent US10239843B2 (CANCER RESEARCH TECHNOLOGY LIMITED, priority 2014, dated 2019):
pIC50: −log10 of the molar value. Read-outs that look alike come from different tables or passages of the source.

Tests used:
[1] = system: PARG in HeLa cell line; test: PARG cell assay (PAR chain immunofluorescence after MMS); type: cell-based; settings: HeLa cells
Outline: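 HeLa cells were dosed with compound for 1 h, then given MMS at 50 μg/mL final for a further hour. Cells were methanol-fixed, permeabilised and stained overnight at 4° C with anti-PAR monoclonal antibody. Retained nuclear PAR chains, detected by indirect immunofluorescence, indicate PARG inhibition.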

[2] = molecular target: Human Full Length PARG (Homo sapiens (Human), UniProt Q86W56); test: PARG enzyme assay (TR-FRET); type: biochemical
Human Full Length PARG, sequence (Q86W56 whole entry): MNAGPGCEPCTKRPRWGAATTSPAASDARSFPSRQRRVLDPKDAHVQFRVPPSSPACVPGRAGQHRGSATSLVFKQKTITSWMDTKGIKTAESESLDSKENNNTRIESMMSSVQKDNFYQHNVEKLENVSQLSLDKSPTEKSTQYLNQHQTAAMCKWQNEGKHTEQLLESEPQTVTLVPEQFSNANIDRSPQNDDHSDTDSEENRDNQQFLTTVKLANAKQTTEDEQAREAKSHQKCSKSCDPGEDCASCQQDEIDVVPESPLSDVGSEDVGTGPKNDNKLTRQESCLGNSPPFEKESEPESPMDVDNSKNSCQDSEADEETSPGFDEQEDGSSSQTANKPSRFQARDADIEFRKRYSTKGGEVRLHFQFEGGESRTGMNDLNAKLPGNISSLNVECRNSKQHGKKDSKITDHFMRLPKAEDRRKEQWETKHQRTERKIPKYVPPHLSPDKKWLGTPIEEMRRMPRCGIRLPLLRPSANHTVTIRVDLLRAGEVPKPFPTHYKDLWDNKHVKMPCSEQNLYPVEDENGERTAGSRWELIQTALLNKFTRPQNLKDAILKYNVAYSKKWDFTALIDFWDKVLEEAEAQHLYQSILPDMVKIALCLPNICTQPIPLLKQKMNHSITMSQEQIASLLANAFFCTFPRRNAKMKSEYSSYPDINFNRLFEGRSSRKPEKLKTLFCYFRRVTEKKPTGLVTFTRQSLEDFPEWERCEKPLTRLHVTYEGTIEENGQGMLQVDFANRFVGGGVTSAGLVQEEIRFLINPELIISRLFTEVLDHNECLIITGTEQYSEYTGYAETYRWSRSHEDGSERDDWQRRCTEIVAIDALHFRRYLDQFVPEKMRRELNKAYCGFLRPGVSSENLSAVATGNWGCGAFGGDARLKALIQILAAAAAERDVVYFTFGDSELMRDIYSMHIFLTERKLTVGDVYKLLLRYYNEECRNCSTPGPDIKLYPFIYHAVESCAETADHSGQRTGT

[3] = Homo sapiens, MMS 50 μg/mL, read-out: PARG Cell IC50 Geomean
[4] = read-out: PARG Biochem IC50 Geomean
[5] = MMS 50 μg/mL, read-out: PARG Cell IC50 Geomean
[6] = Homo sapiens, MMS treatment, read-out: PARG Cell IC50

Row | Compound | pIC50 [1, 3] | pIC50 [2, 4] | pIC50 [1, 5] | pIC50 [1, 6] | pIC50 ([2]; read-out: PARG Biochem IC50)
1 | Cc1cc(Cn2c(=O)c3cc(S(=O)(=O)NC4(C)CC4)ccc3n(CC3(F)COC3)c2=O)on1 [Example 350] | 6.47 | 6.49 | – | – | –
2 | Cn1cc(Cn2c(=O)c3cc(S(=O)(=O)NC4(C)CC4)ccc3n(CC3CC(C)(C)O3)c2=O)cn1 (stereo not shown) [Example 351] | 6.45 | 6.64 | – | – | –
3 | CCc1nn(Cc2cc(C)no2)c(=O)c2cc(S(=O)(=O)NC3(C)CC3)ccc12 [Example 353] | 6.24 | 6.39 | – | – | –
4 | Cn1cc(Cn2c(=O)c3cc(S(=O)(=O)NC4(C#N)CC4)ccc3n(CC3COC3)c2=O)cn1 [Example 354] | – | 6.79 | 4.75 | – | –
5 | Cn1cc(Cn2c(=O)c3cc(S(=O)(=O)NC4(C#N)CC4)ccc3n(CC#N)c2=O)cn1 [Example 356] | 4.78 | 6.40 | – | – | –
6 | COCCn1c(=O)n(Cc2cnn(C)c2)c(=O)c2cc(S(=O)(=O)NC3(C#N)CC3)ccc21 [Example 357] | 5.80 | 6.82 | – | – | –
7 | Cc1cc(Cn2c(=O)c3cc(S(=O)(=O)NC4(C)CC4)ccc3n(CC3CCN(C)C3)c2=O)on1 (stereo not shown) [Example 361] | 5.85 | 6.48 | – | – | –
8 | CSCCn1c(=O)n(Cc2cc(C)no2)c(=O)c2cc(S(=O)(=O)NC3(C)CC3)ccc21 [Example 362] | 6.90 | 6.48 | – | – | –
9 | Cc1cc(Cn2c(=O)c3cc(S(=O)(=O)NC4(C)CC4)ccc3n(CC3CC(F)(F)C3)c2=O)on1 [Example 363] | 6.42 | 6.45 | – | – | –
10 | Cc1cc(Cn2c(=O)c3cc(S(=O)(=O)NC4(C)CC4)ccc3n(CC3CC3(F)F)c2=O)on1 (stereo not shown) [Example 364] | 6.97 | 6.39 | – | – | –
11 | CSCCn1c(=O)n(Cc2cnn(C)c2)c(=O)c2cc(S(=O)(=O)NC3(C)CC3)ccc21 [Example 366] | 7.52 | 6.80 | – | – | –
12 | CC(=O)Cn1c(=O)n(Cc2cnn(C)c2)c(=O)c2cc(S(=O)(=O)NC3(C)CC3)ccc21 [Example 367] | – | 6.45 | 6.47 | – | –
13 | Cc1cc(Cn2c(=O)c3cc(S(=O)(=O)NC4(C)CC4)ccc3n(CC3CCN(C)CC3)c2=O)on1 [Example 371] | 5.95 | 6.59 | – | – | –
14 | CN1CCC(Cn2c(=O)n(Cc3cnn(C)c3)c(=O)c3cc(S(=O)(=O)NC4(C)CC4)ccc32)CC1 [Example 372] | 5.67 | 6.84 | – | – | –
15 | Cn1cc(Cn2c(=O)[nH]c3cc(F)c(S(=O)(=O)NC4(C)CC4)cc3c2=O)cn1 [Example 384, 7-Fluoro-N-(1-methylcyclopropyl)-3-[(1-methylpyrazol-4-yl)methyl]-2,4-dioxo-1H-quinazoline-6-sulfonamide] | – | 6.43 | 6.01 | – | –
16 | Cn1cc(Cn2c(=O)c3cc(S(=O)(=O)NC4(C)CC4)c(F)cc3n(C)c2=O)cn1 [Example 385, 7-Fluoro-1-methyl-N-(1-methylcyclopropyl)-3-[(1-methylpyrazol-4-yl)methyl]-2,4-dioxo-quinazoline-6-sulfonamide] | 6.74 | 6.47 | – | – | –
17 | Cc1ncc(Cn2c(=O)[nH]c3ccc(S(=O)(=O)NC4(C#N)CC4)cc3c2=O)s1 [Example 386, N-(1-Cyanocyclopropyl)-3-[(2-methylthiazol-5-yl)methyl]-2,4-dioxo-1H-quinazoline-6-sulfonamide] | 5.08 | 6.43 | – | – | –
18 | Cn1cc(Cn2c(=O)[nH]c3cc(F)c(S(=O)(=O)NC4(C#N)CC4)cc3c2=O)cn1 [Example 387, N-(1-Cyanocyclopropyl)-7-fluoro-3-[(1-methylpyrazol-4-yl)methyl]-2,4-dioxo-1H-quinazoline-6-sulfonamide] | 5.82 | 6.34 | – | – | –
19 | Cn1cc(Cn2c(OCC3(C)COC3)nc3cc(F)c(S(=O)(=O)NC4(C)CC4)cc3c2=O)cn1 [Example 397, 7-Fluoro-3-((1-methyl-1H-pyrazol-4-yl)methyl)-N-(1-methylcyclopropyl)-2-((3-methyloxetan-3-yl)methoxy)-4-oxo-3,4-dihydroquinazoline-6-sulfonamide] | – | – | – | 6.59 | 6.55
20 | Cn1cc(Cn2c(=O)c3cc(S(=O)(=O)NC4(C)CC4)c(F)cc3n(CC3(C)COC3)c2=O)cn1 [Example 398, 7-Fluoro-3-((1-methyl-1H-pyrazol-4-yl)methyl)-N-(1-methylcyclopropyl)-1-((3-methyloxetan-3-yl)methyl)-2,4-dioxo-1,2,3,4-tetrahydroquinazoline-6-sulfonamide] | – | – | – | 6.59 | 7.36
21 | Cc1ncc(Cn2c(=O)c3cc(S(=O)(=O)NC4(C#N)CC4)ccc3n(CC3CC3)c2=O)s1 [Example 399, N-(1-Cyanocyclopropyl)-1-(cyclopropylmethyl)-3-[(2-methylthiazol-5-yl)methyl]-2,4-dioxo-quinazoline-6-sulfonamide] | – | – | – | 7.06 | 7.51
22 | Cc1cc(Cn2c(=O)n(Cc3cnc(C)s3)c(=O)c3cc(S(=O)(=O)NC4(C#N)CC4)ccc32)on1 [Example 400, N-(1-Cyanocyclopropyl)-1-[(3-methylisoxazol-5-yl)methyl]-3-[(2-methylthiazol-5-yl)methyl]-2,4-dioxo-quinazoline-6-sulfonamide] | – | – | – | 6.49 | 7.57

Next, values leading:

Row | pIC50 [1, 3] | pIC50 [2, 4] | pIC50 [1, 5] | pIC50 [1, 6] | pIC50 ([2]; read-out: PARG Biochem IC50) | Compound
23 | 6.02 | 6.91 | – | – | – | C#CCn1c(=O)n(Cc2cnn(C)c2)c(=O)c2cc(S(=O)(=O)NC3(C#N)CC3)ccc21 [Example 355]
24 | 6.46 | 7.23 | – | – | – | Cn1cc(Cn2c(=O)c3cc(S(=O)(=O)NC4(C#N)CC4)ccc3n(Cc3ccc(F)cc3)c2=O)cn1 [Example 358]
25 | 5.96 | 7.37 | – | – | – | Cc1cc(Cn2c(=O)n(Cc3cnn(C)c3)c(=O)c3cc(S(=O)(=O)NC4(C#N)CC4)ccc32)on1 [Example 359]
26 | – | 6.97 | 6.66 | – | – | Cn1cc(Cn2c(=O)c3cc(S(=O)(=O)NC4(C)CC4)ccc3n(CCC(C)(C)O)c2=O)cn1 [Example 368]
27 | 4.84 | 6.91 | – | – | – | Cn1cc(Cn2c(=O)c3cc(S(=O)(=O)NC4(C#N)CC4)ccc3n(CC3(C)COC3)c2=O)cn1 [Example 376]
28 | 5.40 | 7.02 | – | – | – | Cn1cc(Cn2c(=O)c3cc(S(=O)(=O)NC4(C#N)CC4)ccc3n(CC3CCOC3)c2=O)cn1 (stereo not shown) [Example 377]
29 | 5.71 | 7.36 | – | – | – | Cn1cc(Cn2c(=O)c3cc(S(=O)(=O)NC4(C#N)CC4)ccc3n(Cc3cnn(C)c3)c2=O)cn1 [Example 378]
30 | 7.11 | 7.46 | – | – | – | Cc1cc(Cn2c(=O)n(Cc3cnn(C)c3)c(=O)c3cc(S(=O)(=O)NC4(C)CC4)ccc32)on1 [Example 379]
31 | 7.05 | 7.23 | – | – | – | Cn1cc(Cn2c(=O)c3cc(S(=O)(=O)NC4(C)CC4)ccc3n(CC3CCSCC3)c2=O)cn1 [Example 380]
32 | 6.68 | 6.90 | – | – | – | Cc1cc(Cn2c(=O)c3cc(S(=O)(=O)NC4(C)CC4)ccc3n(CC3CCSCC3)c2=O)on1 [Example 381]
33 | 7.51 | 7.60 | – | – | – | Cn1cc(Cn2c(=O)c3cc(S(=O)(=O)NC4(C)CC4)c(F)cc3n(CC3CC3)c2=O)cn1 [Example 388]
34 | 7.10 | 7.22 | – | – | – | CCn1c(=O)n(Cc2cnn(C)c2)c(=O)c2cc(S(=O)(=O)NC3(C)CC3)c(F)cc21 [Example 389, 1-Ethyl-7-fluoro-N-(1-methylcyclopropyl)-3-[(1-methylpyrazol-4-yl)methyl]-2,4-dioxo-quinazoline-6-sulfonamide]
35 | – | 6.99 | 7.15 | – | – | Cn1cc(Cn2c(=O)c3cc(S(=O)(=O)NC4(C)CC4)c(F)cc3n(Cc3ccc(F)cc3)c2=O)cn1 [Example 390, 7-Fluoro-1-[(4-fluorophenyl)methyl]-N-(1-methylcyclopropyl)-3-[(1-methylpyrazol-4-yl)methyl]-2,4-dioxo-quinazoline-6-sulfonamide]
36 | – | 7.62 | 7.17 | – | – | Cc1cc(Cn2c(=O)n(Cc3cnn(C)c3)c(=O)c3cc(S(=O)(=O)NC4(C)CC4)c(F)cc32)on1 [Example 391, 7-Fluoro-N-(1-methylcyclopropyl)-1-[(3-methylisoxazol-5-yl)methyl]-3-[(1-methylpyrazol-4-yl)methyl]-2,4-dioxo-quinazoline-6-sulfonamide]
37 | 6.95 | 7.33 | – | – | – | Cc1cc(Cn2c(=O)n(Cc3cnn(C)c3)c(=O)c3cc(S(=O)(=O)NC4(C)CC4)c(F)cc32)n(C)n1 [Example 392, 1-[(2,5-Dimethylpyrazol-3-yl)methyl]-7-fluoro-N-(1-methylcyclopropyl)-3-[(1-methylpyrazol-4-yl)methyl]-2,4-dioxo-quinazoline-6-sulfonamide]
38 | – | 7.55 | 7.08 | – | – | Cn1cc(Cn2c(=O)c3cc(S(=O)(=O)NC4(C)CC4)c(F)cc3n(Cc3cnn(C)c3)c2=O)cn1 [Example 393, 7-Fluoro-N-(1-methylcyclopropyl)-1,3-bis[(1-methylpyrazol-4-yl)methyl]-2,4-dioxo-quinazoline-6-sulfonamide]
39 | 6.49 | 7.18 | – | – | – | Cn1cc(Cn2c(=O)c3cc(S(=O)(=O)NC4(C)CC4)c(F)cc3n(CC3COC3)c2=O)cn1 [Example 394, 7-Fluoro-N-(1-methylcyclopropyl)-3-[(1-methylpyrazol-4-yl)methyl]-1-(oxetan-3-ylmethyl)-2,4-dioxo-quinazoline-6-sulfonamide]
40 | 6.81 | 7.22 | – | – | – | Cn1cc(Cn2c(=O)c3cc(S(=O)(=O)NC4(C)CC4)c(F)cc3n(CC3CCOC3)c2=O)cn1 (stereo not shown) [Example 395, 7-Fluoro-N-(1-methylcyclopropyl)-3-[(1-methylpyrazol-4-yl)methyl]-2,4-dioxo-1-(tetrahydrofuran-3-ylmethyl)quinazoline-6-sulfonamide]
41 | 7.77 | 7.96 | – | – | – | Cc1nc(C)c(Cn2c(=O)n(Cc3cnn(C)c3)c(=O)c3cc(S(=O)(=O)NC4(C)CC4)c(F)cc32)s1 [Example 396, 1-[(2,4-Dimethylthiazol-5-yl)methyl]-7-fluoro-N-(1-methylcyclopropyl)-3-[(1-methylpyrazol-4-yl)methyl]-2,4-dioxo-quinazoline-6-sulfonamide]
